{"source": "paper PMC8774231", "about": "“Point Mutations at a Key Site Alter the Cytochrome P450 OleP Structural Dynamics” (Biomolecules, 2021)", "assay_in_all_cases": "UV-visible spectral titration, difference spectra, quadratic fit", "format_in_all_cases": "binding", "key": {"[1]": {"target": "T1, cytochrome P450 OleP (Streptomyces antibioticus, UniProt Q59819, G92W)", "T1 construct": "recombinant His-tagged OleP mutants from pET28b(+)-OleP, expressed in E. coli BL21(DE3), monomer, heme-containing", "T1 sequence (Q59819 1-407 G92W)": "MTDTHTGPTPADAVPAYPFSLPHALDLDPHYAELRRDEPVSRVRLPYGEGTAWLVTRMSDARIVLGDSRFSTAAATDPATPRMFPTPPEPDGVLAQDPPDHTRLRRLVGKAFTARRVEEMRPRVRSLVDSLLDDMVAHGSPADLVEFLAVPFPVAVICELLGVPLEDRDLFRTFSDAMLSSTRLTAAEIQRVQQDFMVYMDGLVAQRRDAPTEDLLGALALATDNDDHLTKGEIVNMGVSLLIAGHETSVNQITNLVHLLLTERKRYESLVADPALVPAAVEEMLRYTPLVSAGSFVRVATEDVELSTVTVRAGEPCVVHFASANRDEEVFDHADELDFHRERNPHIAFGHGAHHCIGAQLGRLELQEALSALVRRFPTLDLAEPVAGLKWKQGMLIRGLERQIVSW"}, "[2]": {"target": "T2, cytochrome P450 OleP (Streptomyces antibioticus, UniProt Q59819, E89Y)", "T2 construct": "recombinant His-tagged OleP mutants from pET28b(+)-OleP, expressed in E. coli BL21(DE3), monomer, heme-containing", "T2 sequence (Q59819 1-407 E89Y)": "T1 sequence (Q59819 1-407 G92W)"}, "[3]": {"target": "T3, cytochrome P450 OleP (Streptomyces antibioticus, UniProt Q59819, S240Y)", "T3 construct": "recombinant His-tagged OleP mutants from pET28b(+)-OleP, expressed in E. coli BL21(DE3), monomer, heme-containing", "T3 sequence (Q59819 1-407 S240Y)": "T1 sequence (Q59819 1-407 G92W)"}}}
{"smiles": "CC[C@H]1OC(=O)[C@H](C)[C@@H](O)[C@H](C)[C@@H](O)[C@@H](C)C[C@@H](C)C(=O)[C@H](C)[C@@H](O)[C@H]1C", "note": "[6DEB]", "values": [{"measurement": "Kd", "setting": "[1]", "value": "1200 ± 100", "unit": "nM"}, {"measurement": "Kd", "setting": "[2]", "value": "8.5 ± 0.8", "unit": "µM"}, {"measurement": "Kd", "setting": "[3]", "value": "700 ± 100", "unit": "nM"}]}
